Assay results: patent US10563272B2, “Compositions comprising Metarhizium fungi and use thereof as a pesticide” (Cotton Research and Development Corporation, priority 2015, dated 2020)

How the values were obtained:
[1] = tested on: Bemisia tabaci b-type adults and nymphs; assay: Rate trial on Bollgard cotton, Cooinda St George 2011-2012 (Example 13): silverleaf whiteflies; type: in vivo; settings: P<0.001; FIG. 50
Description: This trial was conducted on an irrigated Bollgard cotton crop on a commercial cotton farm at Cooinda, St George, Queensland, in 2011-2012.
(§1) The following treatments were evaluated against Bemisia tabaci b-type adults and nymphs: • 1. 250 mL/ha DAT 511 spore in oil (1×10^7 spores/ml); • 2. 500 mL/ha DAT 511 spore in oil (1×10^7 spores/ml); • 3. 1 L/ha DAT 511 spore in oil (1×10^7 spores/ml); • 4. 500 mL/ha Pyriproxyfen (conventional insecticide); and • 5. Unsprayed (control).
(§2) The treatment plots were arranged in a randomized complete block design with three replicates per treatment. Each replicated plot measured 40 m wide (40 rows) and 90 m long.
Foliar applications of each treatment were made on 12 Mar. and 26 Mar. 2012. […] On each sampling date, 20 plants from each replicate were randomly selected and B. tabaci adults on one leaf from the 5th node below the terminal of each plant were counted. […]
(§3) In the case of nymphs, one leaf from the 5th node below the terminal of each of the 20 plants was cut, removed and carefully placed individually in a plastic bag. The plastic bags containing the leaves were taken to the laboratory and the B. tabaci nymphs were counted under a binocular microscope. Data of both adults and nymphs were expressed as numbers per leaf per treatment.

[2] = tested on: Bemisia tabaci b-type adults and nymphs; assay: Rate trial on Bollgard II cotton, Norwood 2011-2012 (Example 11): silverleaf whiteflies; type: in vivo; settings: DAT 511 250 mL, 500 mL, 1 L/ha; Pyriproxyfen 500 mL/ha; P<0.001
Description: This trial was conducted on an irrigated Bollgard II® cotton crop on a commercial cotton farm at Norwood near Moree, NSW, in 2011-2012.
as §1, §2
Foliar applications of each treatment were made on 28 Feb. and 20 Mar. 2012. […] On each sampling date, 20 plants from each replicate were randomly selected and B. tabaci adults on one leaf from the 5th node below the terminal of each plant were counted. […]
as §3

## CC(COc1ccc(Oc2ccccc2)cc1)Oc1ccccn1 (centres unmarked) [Pyriproxyfen]
[1]
  silverleaf whitefly adults and nymphs versus unsprayed plots: Significantly fewer
[2]
  SLW adults and nymphs versus the unsprayed: fewer
